The results in this text go back to PubChem BioAssay AID328 (DTP/NCI, 2004).

Where “and” joins values, the source holds several entries; their conditions need not be identical. Identical values can stand only once. Toxic doses and inconclusive results are not listed.

This experiment deals with BDF1 mice, P388 leukemia ip, median survival T/C. Kind of experiment: NCI In Vivo Anticancer Drug Screen. Data for tumor model P388 Leukemia (intraperitoneal) in B6D2F1 (BDF1) mice. The conditions noted are these: endpoint: median survival time, higher = longer survival. An outline of the steps: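 Antitumour effect was judged in vivo: survival in drug-treated mice, normalised to that of vehicle-dosed controls, gives the reported T/C.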

Setting [1] is: dose: 200.0 mg/kg/injection, schedule: Q01DX009 (ip), vehicle: saline.
The mark [2] stands for this setting: dose: 400.0 mg/kg/injection, schedule: Q01DX009 (ip), vehicle: saline.
The mark [3] stands for this setting: dose: 100.0 mg/kg/injection, schedule: Q01DX009 (ip), vehicle: Klucel (hydroxypropylcellulose) (HPC).
Where [4] appears, read: dose: 200.0 mg/kg/injection, schedule: Q01DX009 (ip), vehicle: Klucel (hydroxypropylcellulose) (HPC).
Setting [5] is: dose: 400.0 mg/kg/injection, schedule: Q01DX009 (ip), vehicle: Klucel (hydroxypropylcellulose) (HPC).
The mark [6] stands for this setting: dose: 100.0 mg/kg/injection, schedule: Q04DX003 (ip), vehicle: saline with Tween-80.

Regarding `O=C(C=C(C(F)(F)F)C(F)(F)F)c1ccccc1Cl`, the T/C (dose: 11.0 mg/kg/injection, schedule: Q01DX009 (ip), vehicle: saline with Tween-80) was 109 % of control; the T/C (dose: 16.5 mg/kg/injection, schedule: Q01DX009 (ip), vehicle: saline with Tween-80) is 118 % of control; the T/C (dose: 25.0 mg/kg/injection, schedule: Q01DX009 (ip), vehicle: saline with Tween-80) was 118 % of control.
In the case of `CN(C)CC(Cl)CCl` (stereo unspecified), the T/C was 103 % of control and 118 % of control (dose: 50.0 mg/kg/injection, schedule: Q01DX009 (ip), vehicle: saline); 178 % of control (dose: 178.0 mg/kg/injection, schedule: Q01DX009 (ip), vehicle: saline); 118 % of control and 168 % of control and 209 % of control under setting [1]; 190 % of control (dose: 266.0 mg/kg/injection, schedule: Q01DX009 (ip), vehicle: saline); 226 % of control and 200 % of control under setting [2].
As to `CCCCCCCCCCOc1ccc(C=O)c(OC)c1`, the T/C by setting is: (dose: 100.0 mg/kg/injection, schedule: Q01DX001 (ip), vehicle: Klucel (hydroxypropylcellulose) (HPC)) 100 % of control; (dose: 200.0 mg/kg/injection, schedule: Q01DX001 (ip), vehicle: Klucel (hydroxypropylcellulose) (HPC)) 100 % of control; (dose: 400.0 mg/kg/injection, schedule: Q01DX001 (ip), vehicle: Klucel (hydroxypropylcellulose) (HPC)) 104 % of control.
For the compound `CN(C)c1cc2c3c(c1)CCCN3CCC2`, the T/C by setting is: (dose: 3.13 mg/kg/injection, schedule: Q01DX009 (ip), vehicle: saline) 95 % of control; (dose: 6.25 mg/kg/injection, schedule: Q01DX009 (ip), vehicle: saline) 100 % of control; (dose: 12.5 mg/kg/injection, schedule: Q01DX009 (ip), vehicle: saline) 113 % of control.
With `S=C1SC2(CCCCCC2)NC2=C1CCCCC2`, the T/C is, setting by setting: under setting [3], 106 % of control; under setting [4], 103 % of control; under setting [5], 105 % of control.
Consider `CC1NC(=O)NC1CCCCCC(=O)O` (stereo unspecified), for which the T/C was 95 % of control under setting [3]; 116 % of control (dose: 100.0 mg/kg/injection, schedule: Q04DX003 (ip), vehicle: Klucel (hydroxypropylcellulose) (HPC)); 90 % of control under setting [4]; 104 % of control (dose: 200.0 mg/kg/injection, schedule: Q04DX003 (ip), vehicle: Klucel (hydroxypropylcellulose) (HPC)); 95 % of control under setting [5]; 91 % of control (dose: 400.0 mg/kg/injection, schedule: Q04DX003 (ip), vehicle: Klucel (hydroxypropylcellulose) (HPC)).
For `CN(C)C=O.CN(C)C=O.[Cl][Sn]([Cl])([Cl])[Cl]`, the T/C (dose: 25.0 mg/kg/injection, schedule: Q01DX009 (ip), vehicle: Klucel (hydroxypropylcellulose) (HPC)) was 100 % of control; the T/C (dose: 50.0 mg/kg/injection, schedule: Q01DX009 (ip), vehicle: Klucel (hydroxypropylcellulose) (HPC)) is 105 % of control; the T/C (dose: 75.0 mg/kg/injection, schedule: Q04DX003 (ip), vehicle: Klucel (hydroxypropylcellulose) (HPC)) is 109 % of control; the T/C under setting [3] was 100 % of control; the T/C (dose: 150.0 mg/kg/injection, schedule: Q04DX003 (ip), vehicle: Klucel (hydroxypropylcellulose) (HPC)) was 86 % of control.
On to `COC(=O)C1C(O)C(C)C(=O)C(C)/C=C\C=C(C)C(=O)Nc2c(C)c(OC(C)=O)c3c(c2O)C(=O)C(C)=C2OCOC(=C23)C(C)=CC(C)(O)C(O)C(C)C1O` (stereo unspecified), for which the T/C is, setting by setting: under setting [3], 101 % of control; under setting [4], 101 % of control; under setting [5], 101 % of control.
As for `O.O=C(O)O.O=C(O)O.O=C(O)O.[Zr]`, the T/C was 96 % of control (dose: 100.0 mg/kg/injection, schedule: Q01DX009 (ip), vehicle: saline); 100 % of control (dose: 100.0 mg/kg/injection, schedule: Q04DX003 (ip), vehicle: saline); 96 % of control under setting [1]; 100 % of control (dose: 200.0 mg/kg/injection, schedule: Q04DX003 (ip), vehicle: saline); 96 % of control under setting [2]; 95 % of control (dose: 400.0 mg/kg/injection, schedule: Q04DX003 (ip), vehicle: saline).
For `c1ccc2c(c1)Sc1ccccc1N2Cc1cnc[nH]1`, the T/C by setting is: (dose: 25.0 mg/kg/injection, schedule: Q04DX003 (ip), vehicle: saline with Tween-80) 100 % of control; (dose: 50.0 mg/kg/injection, schedule: Q04DX003 (ip), vehicle: saline with Tween-80) 104 % of control; under setting [6], 100 % of control; (dose: 200.0 mg/kg/injection, schedule: Q04DX003 (ip), vehicle: saline with Tween-80) 109 % of control.
Turning to `OCCc1ccccc1`, the T/C reads like this: (dose: 100.0 mg/kg/injection, schedule: Q01DX009 (ip), vehicle: saline sonified) 100 % of control; (dose: 200.0 mg/kg/injection, schedule: Q01DX009 (ip), vehicle: saline sonified) 100 % of control.
`O=S(=O)(NC1CCCCC1)c1ccccc1`: the T/C was 90 % of control (dose: 75.0 mg/kg/injection, schedule: Q01DX009 (ip), vehicle: saline with Tween-80); 95 % of control under setting [6]; 90 % of control (dose: 150.0 mg/kg/injection, schedule: Q01DX009 (ip), vehicle: saline with Tween-80); 95 % of control (dose: 300.0 mg/kg/injection, schedule: Q01DX009 (ip), vehicle: saline with Tween-80); 100 % of control (dose: 400.0 mg/kg/injection, schedule: Q04DX003 (ip), vehicle: saline with Tween-80).
On to `CCN=C=NCCCN(C)C`, for which the T/C was 105 % of control (dose: 7.5 mg/kg/injection, schedule: Q01DX009 (ip), vehicle: saline); 105 % of control (dose: 15.0 mg/kg/injection, schedule: Q01DX009 (ip), vehicle: saline); 94 % of control (dose: 30.0 mg/kg/injection, schedule: Q01DX009 (ip), vehicle: saline); 100 % of control (dose: 60.0 mg/kg/injection, schedule: Q01DX009 (ip), vehicle: saline).
Regarding `CCOC(=O)c1sc(NC(C)=O)c(C(=O)OCC)c1C`, the T/C is 100 % of control under setting [3], 100 % of control under setting [4] and 100 % of control under setting [5].
Take `Clc1ncnc2nc[nH]c12`: the T/C (dose: 7.5 mg/kg/injection, schedule: Q01DX010 (ip), vehicle: saline) is 92 % of control and 118 % of control; the T/C (dose: 15.0 mg/kg/injection, schedule: Q01DX010 (ip), vehicle: saline) is 92 % of control and 122 % of control; the T/C (dose: 30.0 mg/kg/injection, schedule: Q01DX010 (ip), vehicle: saline) was 100 % of control; the T/C (dose: 60.0 mg/kg/injection, schedule: Q01DX010 (ip), vehicle: saline) was 100 % of control.
For `COC(=O)C1=COC(C)C2CN3CCc4c([nH]c5ccccc45)C3CC12` (stereo unspecified), the T/C is 90 % of control (dose: 20.0 mg/kg/injection, schedule: Q01DX010 (ip), vehicle: saline); 90 % of control (dose: 40.0 mg/kg/injection, schedule: Q01DX010 (ip), vehicle: saline); 90 % of control (dose: 160.0 mg/kg/injection, schedule: Q01DX010 (ip), vehicle: saline).
In the case of `Cc1cc(C)c([I+]c2c(C)cc(C)cc2C)c(C)c1`, the T/C (dose: 0.28 mg/kg/injection, schedule: Q01DX009 (ip), vehicle: saline) was 118 % of control; the T/C (dose: 0.45 mg/kg/injection, schedule: Q04DX003 (ip), vehicle: saline) is 109 % of control; the T/C (dose: 0.56 mg/kg/injection, schedule: Q01DX009 (ip), vehicle: saline) was 118 % of control; the T/C (dose: 0.65 mg/kg/injection, schedule: Q04DX003 (ip), vehicle: saline) is 109 % of control; the T/C (dose: 1.1 mg/kg/injection, schedule: Q04DX003 (ip), vehicle: saline) is 120 % of control; the T/C (dose: 1.13 mg/kg/injection, schedule: Q01DX009 (ip), vehicle: saline) is 109 % of control. Moreover, the T/C was 120 % of control (dose: 1.65 mg/kg/injection, schedule: Q04DX003 (ip), vehicle: saline); 103 % of control (dose: 3.0 mg/kg/injection, schedule: Q01DX009 (ip), vehicle: Klucel (hydroxypropylcellulose) (HPC)); 112 % of control (dose: 3.0 mg/kg/injection, schedule: Q04DX003 (ip), vehicle: Klucel (hydroxypropylcellulose) (HPC)); 111 % of control (dose: 6.0 mg/kg/injection, schedule: Q01DX009 (ip), vehicle: Klucel (hydroxypropylcellulose) (HPC)); 100 % of control (dose: 6.0 mg/kg/injection, schedule: Q04DX003 (ip), vehicle: Klucel (hydroxypropylcellulose) (HPC)); 95 % of control (dose: 8.0 mg/kg/injection, schedule: Q04DX003 (ip), vehicle: Klucel (hydroxypropylcellulose) (HPC)). For the same compound, the T/C by setting is: (dose: 8.0 mg/kg/injection, schedule: Q04DX003 (ip), vehicle: saline with Tween-80) 120 % of control; (dose: 12.5 mg/kg/injection, schedule: Q04DX003 (ip), vehicle: Klucel (hydroxypropylcellulose) (HPC)) 115 % of control.
